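48-hour exposure; five concentrations; linearly interpolated endpoints. At the GI50, growth is halved.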 Active and inactive are the calls of the source. No stated cut-off is given here; in the data, active = GI50 up to about 1.1 µM and inactive = higher.
Key:
Test in all cases: NCI anticancer screen, dose series, 48 h
SK-MEL-28 = test system: SK-MEL-28
OVCAR-4 = test system: OVCAR-4
KM-20L2 = test system: KM-20L2
COLO 205 = test system: COLO 205
HOP-62 = test system: HOP-62
IGROV-1 = test system: IGROV-1
HOP-92 = test system: HOP-92
TK-10 = test system: TK-10
SNB-75 = test system: SNB-75
NCI-H226 = test system: NCI-H226
SK-OV-3 = test system: SK-OV-3
CCRF-CEM = test system: CCRF-CEM
HCT-15 = test system: HCT-15
HCC 2998 = test system: HCC 2998
HCT-116 = test system: HCT-116
OVCAR-3 = test system: OVCAR-3
MDA-MB-231 = test system: MDA-MB-231
MDA-MB-435 = test system: MDA-MB-435
MDA-N = test system: MDA-N

Compound	GI50 (SK-MEL-28)	GI50 (OVCAR-4)	GI50 (KM-20L2)	GI50 (COLO 205)	GI50 (HOP-62)	GI50 (IGROV-1)	GI50 (HOP-92)	GI50 (TK-10)	GI50 (SNB-75)	GI50 (NCI-H226)	GI50 (SK-OV-3)	GI50 (CCRF-CEM)	GI50 (HCT-15) [µM]	GI50 (HCC 2998)	GI50 (HCT-116)	GI50 (OVCAR-3)	GI50 (MDA-MB-231)	GI50 (MDA-MB-435)	GI50 (MDA-N)
C=C1CCC(OC(C)=O)C2(C)C(OC(C)=O)CC3OC3(C)C2C(OC(C)=O)C2C(C)C(=O)OC2C1Cl (configuration not stated)	> 100 µM (inactive)	> 100 µM (inactive)	> 100 µM (inactive)	> 100 µM (inactive)	> 100 µM (inactive)	> 100 µM (inactive)	> 100 µM (inactive)	> 100 µM (inactive)	> 100 µM (inactive)	> 100 µM (inactive)	> 100 µM (inactive)	> 100 µM (inactive)	> 100	> 100 µM (inactive)	> 100 µM (inactive)	> 100 µM (inactive)			
Cc1nc2ccccn2c1/N=N/c1ccc(C(=O)NN)cc1	80.9 µM (inactive)	> 100 µM (inactive)	92.9 µM (inactive)	51.2 µM (inactive)	38.3 µM (inactive)	21.7 µM (inactive)	46.5 µM (inactive)	23 µM (inactive)		25.5 µM (inactive)	48 µM (inactive)	4.59 µM (inactive)	54.2	75.7 µM (inactive)		45 µM (inactive)			
C[S+]=c1sc2ccccc2s1		> 100 µM (inactive)	> 100 µM (inactive)	> 100 µM (inactive)	> 100 µM (inactive)	> 100 µM (inactive)	> 100 µM (inactive)	> 100 µM (inactive)	> 100 µM (inactive)	> 100 µM (inactive)	> 100 µM (inactive)	> 100 µM (inactive)	> 100	> 100 µM (inactive)	> 100 µM (inactive)				
CN(C)C(=N)c1ccccc1	> 100 µM (inactive)	> 100 µM (inactive)	> 100 µM (inactive)	> 100 µM (inactive)	> 100 µM (inactive)		> 100 µM (inactive)	> 100 µM (inactive)	> 100 µM (inactive)	> 100 µM (inactive)				> 100 µM (inactive)	> 100 µM (inactive)	> 100 µM (inactive)			
COc1ccc(C(=O)C(C(=O)CC(=O)Nc2cccc(C(F)(F)F)c2)c2ccc(OC)cc2)cc1 (configuration not stated)	> 100 µM (inactive)	> 100 µM (inactive)	> 100 µM (inactive)	> 100 µM (inactive)	> 100 µM (inactive)	> 100 µM (inactive)	> 100 µM (inactive)		30.8 µM (inactive)	> 100 µM (inactive)	> 100 µM (inactive)	> 100 µM (inactive)	> 100	> 100 µM (inactive)	> 100 µM (inactive)	> 100 µM (inactive)			
COC(=O)CCC(NC(=S)N/N=C(\C)c1cnccn1)C(=O)OC (configuration not stated)	55.8 µM (inactive)	56.2 µM (inactive)	38.6 µM (inactive)	34.4 µM (inactive)	36.2 µM (inactive)	69.8 µM (inactive)	> 100 µM (inactive)	> 100 µM (inactive)	85.3 µM (inactive)	44.5 µM (inactive)	> 100 µM (inactive)	16.8 µM (inactive)	44.5	56.5 µM (inactive)	33.9 µM (inactive)	34.5 µM (inactive)			
CC1=C(C(=O)Nc2ccccc2C)C(c2ccc(C3C(C(=O)Nc4ccccc4C)=C(C)NC(C)=C3C(=O)Nc3ccccc3C)cc2)C(C(=O)Nc2ccccc2C)=C(C)N1	2.04 µM (inactive)	8.99 µM (inactive)	3.74 µM (inactive)	3.7 µM (inactive)	21.1 µM (inactive)	3.16 µM (inactive)	8.38 µM (inactive)	10.7 µM (inactive)	14.4 µM (inactive)	14.1 µM (inactive)	15.3 µM (inactive)	1.95 µM (inactive)	9.4	4.51 µM (inactive)	2.21 µM (inactive)	6.67 µM (inactive)	2.29 µM (inactive)	4.32 µM (inactive)	5.6 µM (inactive)
N#CC(C#N)=c1ccc(=C2N3CCCC3CN2C23CC4CC(CC(C4)C2)C3)cc1 (configuration not stated)	69.3 µM (inactive)		> 100 µM (inactive)	> 100 µM (inactive)	24.4 µM (inactive)	> 100 µM (inactive)	> 100 µM (inactive)	76.4 µM (inactive)	26.4 µM (inactive)	> 100 µM (inactive)	> 100 µM (inactive)	> 100 µM (inactive)	> 100	> 100 µM (inactive)	> 100 µM (inactive)	> 100 µM (inactive)			
Cc1ccc(S(=O)(=O)N/N=C2\C(=O)C3CC2C(Cl)C3Cl)cc1 (configuration not stated)	> 100 µM (inactive)	> 100 µM (inactive)	> 100 µM (inactive)	> 100 µM (inactive)	> 100 µM (inactive)	> 100 µM (inactive)	70.8 µM (inactive)	> 100 µM (inactive)	55 µM (inactive)	> 100 µM (inactive)	> 100 µM (inactive)	> 100 µM (inactive)	> 100	> 100 µM (inactive)	> 100 µM (inactive)	> 100 µM (inactive)			
C[n+]1c2ccccc2c(CNC(CS)C(=O)O)c2ccccc21 (configuration not stated)		28.1 µM (inactive)	20.4 µM (inactive)	19.2 µM (inactive)	15.5 µM (inactive)	18.8 µM (inactive)	18.7 µM (inactive)	39.1 µM (inactive)	21.7 µM (inactive)	29.8 µM (inactive)	23.1 µM (inactive)	24.4 µM (inactive)	20.7	31.5 µM (inactive)	17.5 µM (inactive)	24.4 µM (inactive)			
Nc1cccc(C(=O)/C=C/c2ccccc2O)c1	> 100 µM (inactive)		> 100 µM (inactive)	> 100 µM (inactive)	> 100 µM (inactive)	> 100 µM (inactive)	> 100 µM (inactive)	> 100 µM (inactive)	13.2 µM (inactive)	> 100 µM (inactive)	> 100 µM (inactive)	27.5 µM (inactive)	> 100	> 100 µM (inactive)	> 100 µM (inactive)	> 100 µM (inactive)			
CCC12C=C(C(=O)OC)N3c4ccccc4C4CCN(CCC1)C2C43 (configuration not stated)	95.7 µM (inactive)	97.9 µM (inactive)	19.1 µM (inactive)	31.9 µM (inactive)	38.9 µM (inactive)	> 100 µM (inactive)	34.8 µM (inactive)	> 100 µM (inactive)	30.2 µM (inactive)	25.3 µM (inactive)	> 100 µM (inactive)	> 100 µM (inactive)	64.3	29.7 µM (inactive)	68.7 µM (inactive)	> 100 µM (inactive)			
C#CC1(O)CCC2C3CCc4cc(Oc5nc(F)nc(-c6c7ccccc7c7n6CCS7)n5)ccc4C3CC[C@@]21C (some centres not stated)	21.1 µM (inactive)	15.3 µM (inactive)	29.2 µM (inactive)	29 µM (inactive)	17.9 µM (inactive)	29.2 µM (inactive)	23.8 µM (inactive)	27.2 µM (inactive)	12.2 µM (inactive)	34 µM (inactive)		11 µM (inactive)	15.1	19.2 µM (inactive)	12.1 µM (inactive)	17.9 µM (inactive)			
NC(=O)C(=O)Cc1nc2ccccc2s1	> 100 µM (inactive)	> 100 µM (inactive)	> 100 µM (inactive)	> 100 µM (inactive)	> 100 µM (inactive)		> 100 µM (inactive)	> 100 µM (inactive)	68.2 µM (inactive)	> 100 µM (inactive)	> 100 µM (inactive)	> 100 µM (inactive)	> 100	> 100 µM (inactive)	> 100 µM (inactive)	> 100 µM (inactive)			
O=C(CC1Sc2ccccc2NC1=O)Nc1ccc([N+](=O)[O-])cc1[N+](=O)[O-] (configuration not stated)	17.7 µM (inactive)	17.2 µM (inactive)	26.7 µM (inactive)	26.7 µM (inactive)	40.6 µM (inactive)	17.4 µM (inactive)	11 µM (inactive)	41.3 µM (inactive)	20 µM (inactive)	11.9 µM (inactive)		15.6 µM (inactive)		50.9 µM (inactive)	16 µM (inactive)	16.3 µM (inactive)			

From ChEMBL document CHEMBL1201862, “PubChem BioAssay data set” (2004)
